Source: publication PMC6458850, “CXXC5 mediates growth plate senescence and is a target for enhancement of longitudinal bone growth” (Life Science Alliance, 2019)

Experiments:
GSK3β (human) = GSK3β (human) (Homo sapiens, UniProt P49841); experiment: GSK3β kinase assay; assay type: biochemical; conditions: dose–response curve, n = 3; read-out: IC50, in vitro GSK3β activity
Procedure: GSK3β (human) was incubated with 8 mM MOPS (pH 7.0), 0.2 mM EDTA, 20 μM […](p) EDEEE (phospho-GS2 peptide), 10 mM Mg acetate, and [γ-33P-ATP] (specific activity ∼500 cpm/pmol, concentration as required). The reaction was initiated by the addition of the Mg-ATP mixture. After incubation for 40 min at room temperature, the reaction was stopped by addition of 3% phosphoric acid solution. 10 μl of the reaction was then spotted onto a P30 filtermat and washed three times for 5 min in 50 mM phosphoric acid and once in methanol before drying and scintillation counting.

ATDC5 cells = experiment: Chondrocyte proliferation, differentiation and Wnt/β-catenin signaling in ATDC5 cells; assay type: cell-based, mouse
Procedure: Figure S7. The effects of KY19382 on chondrocyte proliferation and differentiation. (A) ATDC5 cells treated with 0.01 or 0.1 μM concentrations of KY19382 were incubated for 48 h followed by treatment with 50 μM BrdU for 12 h before harvesting. BrdU incorporation was visualized by immunofluorescent staining using a specific BrdU antibody (left). BrdU-positive cells were quantified (mean ± SEM, n = 3; ANOVA, P = 7.8 × 10^−5; Tukey’s post-hoc test, *P < 0.05 and ***P < 0.0005) (right). Scale bar, 100 μm. (B) qRT-PCR analyses of mRNA levels of chondrogenic differentiation markers in ATDC5 cells incubated with 0.1 μM KY19382 for 3 d in three-dimensional alginate beads after transfection with control siRNA or Ctnnb1 siRNA (mean ± SEM, n = 3; t test, *P < 0.05, **P < 0.005, and ***P < 0.0005). (C) qRT-PCR analyses of mRNA levels of chondrogenic differentiation markers in C28/I2 cells incubated with 1 μM KY19382 for 3 d in three-dimensional alginate beads (mean ± SEM, n = 3; t test, *P < 0.05 and ***P < 0.0005). n.s., no significance.
Figure S8. qRT-PCR analyses for target-specificity of KY19382. qRT-PCR analyses of mRNA levels of pathway-specific target genes in ATDC5 cells treated with 0.01 or 0.1 μM concentrations of KY19382 for 4 h (mean ± SEM, n = 3; ANOVA and Tukey’s post-hoc test, *P < 0.05 and **P < 0.005 versus DMSO-treated control). n.s., no significance versus DMSO-treated control.
The mouse chondrogenic cell line, ATDC5, was obtained from the RIKEN Cell Bank. The human juvenile costal chondrocyte cell line, C28/I2, was provided by Dr. W U Kim (Catholic University, Korea). HEK293-TOP cells (HEK293 cells containing the chromosomally incorporated TOPFlash gene) were provided by Dr. S Oh (Kuk Min University, Korea). ATDC5 cells were maintained in DMEM/F12 (1:1) (Gibco) supplemented with 5% FBS (Gibco). To induce hypertrophic differentiation, ATDC5 cells were incubated with insulin–transferrin–sodium selenite supplement (Gibco) in three-dimensional alginate beads for 3 d, as described previously ([Kawasaki et al, 2008]). C28/I2 and HEK293-TOP cells were maintained in DMEM (Gibco) containing 10% FBS. All chemicals were dissolved in dimethyl sulfoxide (DMSO; Sigma-Aldrich) for the in vitro studies. For E2 (17β-estradiol; Sigma-Aldrich) treatment, the cells were cultured in phenol red–free DMEM/F12 with 5% charcoal-stripped FBS for 24 h followed by serum-free medium for 24 h before the experiment. The PTD-DBMP was synthesized by Peptide 2.0 Inc.
ATDC5 or C28/I2 cells were seeded on glass coverslip in 12-well culture plates. The cells were washed with PBS and fixed with 4% PFA at room temperature for 15 min. After permeabilization with 0.1% Triton X-100 for 15 min and blocking with 5% BSA for 1 h, the cells were incubated with primary antibodies specific for β-catenin (1:100) or CXXC5 (1:200) at 4°C overnight. The cells were washed in PBS and incubated with Alexa Fluor 488 or Alexa Fluor 555 secondary antibodies (1:200) at room temperature for 1 h. Cell nuclei were counterstained with DAPI for 10 min and the stained samples were examined under an LSM700 META microscope using 405-, 488-, or 543-nm excitation wavelengths. For BrdU assay, the cultured cells were incubated with BrdU solution (25 μM) overnight, followed by immunocytochemical staining with antibody against BrdU (1:100).
Immunoprecipitation was performed as previously described ([Kim et al, 2015]). To monitor the protein–protein interactions, 1 mg of WCLs were incubated with anti-DVL1 and protein G agarose beads (GenDEPOT) or anti-Myc and protein A agarose beads (GenDEPOT) at 4°C for 16 h, and the beads were then washed three times in RIPA buffer. The resulting immune complexes were resolved by SDS–PAGE, and immunoblotting was performed with the indicated antibodies.
Total RNA was extracted using Trizol reagent (Invitrogen) according to the manufacturer’s instructions. […]

[1] = ATDC5 cells, 0.01 or 0.1 μM, 4 h

Sequence of GSK3β (human) (P49841 whole entry): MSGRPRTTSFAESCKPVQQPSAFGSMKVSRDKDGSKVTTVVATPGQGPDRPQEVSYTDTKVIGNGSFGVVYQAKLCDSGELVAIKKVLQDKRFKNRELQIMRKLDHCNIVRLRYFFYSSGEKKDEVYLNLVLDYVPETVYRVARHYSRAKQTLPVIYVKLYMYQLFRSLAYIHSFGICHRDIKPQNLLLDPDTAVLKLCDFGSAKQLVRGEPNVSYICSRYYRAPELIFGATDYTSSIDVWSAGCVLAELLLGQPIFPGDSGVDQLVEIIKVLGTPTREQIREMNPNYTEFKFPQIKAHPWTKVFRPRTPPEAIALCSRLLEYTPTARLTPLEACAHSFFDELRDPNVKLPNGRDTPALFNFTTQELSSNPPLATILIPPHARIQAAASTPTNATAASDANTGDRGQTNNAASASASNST

IC50 (GSK3β (human)): 10 nM
SMILES: CON=C1C(=C2C(=O)Nc3cc(Cl)c(Cl)cc32)Nc2ccccc21 [KY19382, 5,6-dichloroindirubin-3′-methoxime]
BrdU-positive ATDC5 cells (ATDC5 cells; 0.01 or 0.1 μM, 48 h): enhanced number
CXXC5–DVL interaction (immunoprecipitation) (ATDC5 cells; ATDC5 cells transfected with FLAG-DVL1 and CXXC5-Myc, 0.1 μM, 4 h): interruption
nuclear translocation of β-catenin (ATDC5 cells; ATDC5 cells, 0.1 μM, 48 h): elevated nuclear translocation
mRNA levels of chondrogenic markers (ATDC5 cells; ATDC5 cells, 0.1 μM, 3 d, alginate beads): up-regulated
expression levels of Wnt/β-catenin target genes (Wisp1, Axin2) (ATDC5 cells; [1]): markedly increased
expression of 19 other genes that respond to other pathways (off-target effects) (ATDC5 cells; [1]): not significantly altered
concentration sufficient to promote activation of Wnt/β-catenin pathway in vitro (ATDC5 cells; Fig 4E and Fig S8): 0.01 µM
